Data: US10336762B2 (priority 2017, dated 2019)

How the values were obtained:
IRAK4 enzyme = IRAK4 enzyme (Homo sapiens (Human), UniProt Q9NWZ3); assay: biochemical; type: biochemical; conditions: IRAK4 enzyme, TR-FRET (HTRF), 500 μM ATP
TNFα = assay: cells; type: cell-based, human; conditions: Homo sapiens, Monocyte, LPS-stimulated human monocytes, TNFα content; read-out: EC50 TNF

Sequence of IRAK4 enzyme (Q9NWZ3 whole entry): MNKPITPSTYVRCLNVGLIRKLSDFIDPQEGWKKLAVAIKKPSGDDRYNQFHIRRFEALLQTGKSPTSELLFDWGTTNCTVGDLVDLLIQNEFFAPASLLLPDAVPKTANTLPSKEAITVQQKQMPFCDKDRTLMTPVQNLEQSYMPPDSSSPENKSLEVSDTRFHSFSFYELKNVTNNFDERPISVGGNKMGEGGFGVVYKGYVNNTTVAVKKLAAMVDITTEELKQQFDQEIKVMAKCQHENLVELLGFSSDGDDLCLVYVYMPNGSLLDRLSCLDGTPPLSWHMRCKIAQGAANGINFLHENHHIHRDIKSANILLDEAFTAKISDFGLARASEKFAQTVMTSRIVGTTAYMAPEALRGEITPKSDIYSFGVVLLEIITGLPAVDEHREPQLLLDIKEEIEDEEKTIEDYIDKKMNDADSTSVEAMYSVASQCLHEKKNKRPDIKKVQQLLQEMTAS

Row | Structure (SMILES) | IC50 (IRAK4 enzyme) [nM] | EC50 (TNFα) [nM]
1 | CC(C)(O)[C@H](F)CNC(=O)c1cnc(-c2ccc3cc(C#N)cnn23)cc1Nc1ccc2c(c1)NC(=O)C2 [Example 573, (R)-6-(3-cyanopyrrolo[1,2-b]pyridazin-7-yl)-N-(2-fluoro-3-hydroxy-3-methyl-butyl)-4-((2-oxoindolin-6-yl)amino)nicotinamide] | < 1 | 24
2 | CC(C)(O)[C@H](F)CNC(=O)c1cnc(-c2ccc3cc(C#N)cnn23)cc1Nc1ccc2cn[nH]c2c1 [Example 574, (R)-4-((1H-indazol-6-yl)amino)-6-(3-cyano-pyrrolo[1,2-b]pyridazin-7-yl)-N-(2-fluoro-3-hydroxy-3-methylbutyl) nicotinamide] | < 1 | 57
3 | CN(C)C(=O)c1ccc(Nc2cc(-c3ccc4cc(C#N)cnn34)ncc2C(=O)NC[C@@H](F)C(C)(C)O)cn1 [Example 575, (R)-5-((2-(3-cyano-pyrrolo[1,2-b]pyridazin-7-yl)-5-((2-fluoro-3-hydroxy-3-methylbutyl)carbamoyl)pyridin-4-yl)amino)-N,N-dimethyl-picolinamide] | 2 | 144
4 | CC(C)(O)[C@H](F)CNC(=O)c1cnc(-c2ccc3cc(C#N)cnn23)cc1Nc1ccc2[nH]ccc2c1 [Example 576, (R)-4-((1H-indol-5-yl)amino)-6-(3-cyano-pyrrolo[1,2-b]pyridazin-7-yl)-N-(2-fluoro-3-hydroxy-3-methylbutyl) nicotinamide] | < 1 | 21
5 | CC(C)(O)[C@H](F)CNC(=O)c1cnc(-c2ccc3cc(C#N)cnn23)cc1Nc1ccc2[nH]ncc2c1 [Example 577, (R)-4-((1H-indazol-5-yl)amino)-6-(3-cyano-pyrrolo[1,2-b]pyridazin-7-yl)-N-(2-fluoro-3-hydroxy-3-methylbutyl) nicotinamide] | < 1 | 30
6 | CC(C)(O)[C@H](F)CNC(=O)c1cnc(-c2ccc3cc(C#N)cnn23)cc1Nc1ccc2cc[nH]c2c1 [Example 578, (R)-4-((1H-indol-6-yl)amino)-6-(3-cyano-pyrrolo[1,2-b]pyridazin-7-yl)-N-(2-fluoro-3-hydroxy-3-methylbutyl) nicotinamide] | 2 | 14
7 | CNC(=O)c1ccc(Nc2cc(-c3ccc4cc(C#N)cnn34)ncc2C(=O)NC[C@@H](F)C(C)(C)O)cn1 [Example 579, (R)-5-((2-(3-cyano-pyrrolo[1,2-b]pyridazin-7-yl)-5-((2-fluoro-3-hydroxy-3-methylbutyl)carbamoyl)pyridin-4-yl)amino)-N-methylpicolinamide] | < 1 | 75
8 | CC(C)(O)[C@H](F)CNC(=O)c1cnc(-c2ccc3cc(C#N)cnn23)cc1Nc1ccc2nc[nH]c2c1 [Example 580, (R)-4-((1H-benzo[d]imidazol-6-yl)amino)-6-(3-cyanopyrrolo[1,2-b]pyridazin-7-yl)-N-(2-fluoro-3-hydroxy-3-methyl-butyl)nicotinamide] | < 1 | 69
9 | Cc1cc(Nc2cc(-c3ccc4cc(C#N)cnn34)ncc2C(=O)NC[C@@H](F)C(C)(C)O)ccc1C(N)=O [Example 581, (R)-4-((4-carbamoyl-3-methylphenyl)amino)-6-(3-cyanopyrrolo[1,2-b]pyridazin-7-yl)-N-(2-fluoro-3-hydroxy-3-methylbutyl)nicotinamide] | < 1 | 114
10 | Cc1cc(Nc2cc(-c3ccc4cc(C#N)cnn34)ncc2C(=O)NC[C@@H](F)C(C)(C)O)ncc1C(N)=O [Example 582, (R)-4-((5-carbamoyl-4-methylpyridin-2-yl)amino)-6-(3-cyanopyrrolo[1,2-b]pyridazin-7-yl)-N-(2-fluoro-3-hydroxy-3-methyl-butyl)nicotinamide] | 3 | 389
11 | Cc1cc(Nc2cc(-c3ccc4cc(C#N)cnn34)ncc2C(=O)NC[C@@H](F)C(C)(C)O)ccc1C#N [Example 583, (R)-4-((4-cyano-3-methylphenyl)amino)-6-(3-cyanopyrrolo[1,2-b]pyridazin-7-yl)-N-(2-fluoro-3-hydroxy-3-methylbutyl)nicotinamide] | 2 | 140
